Reference: US11918618B2, “Composition for preventing or treating gastritis or peptic ulcer” (CHONG KUN DANG PHARMACEUTICAL CORP., priority 2017, dated 2024)

Columns and labels:
stomach mucus = test: Effect of improving stomach mucosal amount (alcian blue binding) in Indomethacin-treated rats; type: in vivo; details: rat, oral dose 100.0 mg/kg, Indomethacin 80 mg/kg
Description: In order to confirm the effect of improving the mucosal amount of the Example 1 and Comparative examples 1 to 6, the test was carried out according to the following method. Test animals were randomly assigned to 10 animals of specific pathogen free (SPF) 7-week-old rat males per group so that the average body weight was maximally uniformly distributed throughout the adaptation period (7 days). All animals were fasted 48 hours before administration and then test substances and control drug were orally administered, and 30 minutes after administration, Indomethacin 80 mg/kg was orally administered. […] After mixing the extract solution with diethyl ether in the same amount and shaking, it was centrifuged at 3,500 rpm for 10 minutes and for the supernatant, the absorbance was measured at 605 nm. 0.1% w/v alcian blue 8 GX solution was diluted with 0.25 M sucrose solution and standard solution was prepared and thereby a standard curve was fabricated and the measured absorbance value was converted into the amount of alcian blue combined with the stomach mucus, and the result was shown in Table 3.

PGE2 = test: Improvement of PGE2 in serum (PGE2 ELISA Kit) of Indomethacin-treated rats; type: in vivo; details: rat serum, oral dose 100.0 mg/kg
Excerpt: Since the recovery mechanism of stomach mucous membrane blood stream and epithelial cells is maintained and the action of preserving cells of the stomach mucous membrane was shown, when PGE2 in serum is increased, the enhanced improvement of PGE2 affects treatment of gastritis or stomach ulcer. In order to confirm the effect of the Example 1 and Comparative examples 2, 5 to 6 according to the present invention for this improvement of PGE2, for the blood collected in Test example 2, serum was separated according to the protocol provided by the manufacturer of PGE2 ELISA Kit and then sampling treatment was carried out, and then it was analyzed, and the result was shown in the following Table 4.

stomach ulcer = test: Inhibition of Indomethacin-induced stomach ulcer in rats (stomach ulcer index); type: in vivo; details: rat, single oral dose 75.0 mg/kg, Indomethacin 80 mg/kg
Description: In order to confirm the inhibition rate of stomach ulcer of the Example 1 and Comparative examples 1 to 6, the test was carried out according to the following method. Test animals were randomly assigned to 10 animals of specific pathogen free (SPF) 7-week-old rat males per group so that the average body weight was maximally uniformly distributed throughout the adaptation period (7 days). […] All animals were fasted 48 hours before administration of test substances and control drug, and then each of test substances and control drug was orally administered, and Indomethacin previously prepared 30 minutes after administration was orally administered at a dose of 80 mg/kg. After anesthetizing with diethyl ether 5 hours after administration of Indomethacin, stomach was removed and the gastric mucosa was photographed with a digital camera. The area of the damaged site was analyzed using ImageJ software (NIH, Bethesda, Md.). The stomach ulcer index was measured according to the following Equation 1. Stomach ulcer index (%)=(damage area/total area)×100 [Equation 1] The stomach ulcer test by volume for the Example 1 was tested by the method as Experimental example 1, and was shown in Table 5.

[1] = reported in the literature; cited from earlier work

O=C(NC(Cc1cc(=O)[nH]c2ccccc12)C(=O)O)c1ccc(Cl)cc1 (stereo not shown) [Comparative example 5, Rebamipide]
Mucosal amount (stomach mucus): 10.6 ± 3.7 µg/L
Mucosal amount, % compared to the normal group (stomach mucus): 94.6%
PGE2 (PGE2): 1.82 ± 0.14 ng/mL
PGE2, % compared to the normal group (PGE2; normal group 100, induced group 0): 77.7%

CNC(=C[N+](=O)[O-])NCCSCc1ccc(CN(C)C)o1 [Comparative example 4, Ranitidine]
Inhibition rate (%), compared to the induced group (stomach ulcer): 97.0%
Stomach ulcer index (%) (stomach ulcer): 0.20 ± 0.29 %

O=C/C=C/c1ccccc1 [cinnamic aldehyde]
stability at the room temperature [1]: low
